Test results: patent US20250129334A1, “LINEAGE SPECIFICATION DURING STEM CELL TRANSITION” (Amniotics AB, priority 2021, published 2025)

Legend:
HE cells [1] = test: HE subculture with metabolic regulators, flow cytometry of hematopoietic output; format: cell-based, human
From the text: The RB9-CB1 human iPSC line (Woods, N.-B. et al. Brief report: efficient generation of hematopoietic precursors and progenitors from human pluripotent stem cell lines. Stem Cells 29, 1158-1164 (2011)) was co-cultured with mouse embryonic fibroblasts (MEFs, Millipore), passaged every six days and processed to form embryoid bodies (EBs) as described previously (Guibentif, C. et al. Single-Cell Analysis Identifies Distinct Stages of Human Endothelial to-Hematopoietic Transition. Cell Reports 19, 10-19 (2017)). The differentiation protocol used in this study was previously described (Ditadi, A. & Sturgeon, C. M. Directed differentiation of definitive hemogenic endothelium and hematopoietic progenitors from human pluripotent stem cells. Methods 101, 65-72 (2016)), however, small modifications were made to induce both primitive and definitive hematopoiesis, as indicated below and in FIG. 6, a. Newly-formed EBs were first kept in SFD medium supplemented with 1 ng/ml Activin A (on days 0-2) and 3 μM CHIR99021 (on day 2 only). At day 3, media was switched to “Day 3-SP34” medium supplemented with 1 ng/ml Activin A (on day 3 only) and 3 μM CHIR99021 (on day 3 only) until day 6. On day 6, media was replaced by “Day 6-SP34” medium, until day 8. In some experiments where indicated, to obtain a higher yield of HSC-like cells, EBs were kept until day 10: in this case, EBs were plated onto Matrigel (8 μg/cm2, Corning)-coated dishes on day 8 and kept until day 10. Media was changed every day, except on days 5 and 7. On day 8 or 10 (as indicated), EBs were singularized with 5-6 rounds of 5-minute incubations with TryPLE Express (Thermo Fisher Scientific). CD34^+ cells were selected using the human CD34 MicroBead kit (Miltenyi Biotec) and stained with CD34-FITC, CD73-PE, VECad-PerCPCy5.5, CD38-PC7, CD184-APC, CD45-AF700, CD43-APCH7, GPA-eF450, CD90-BV605 and the viability marker 7AAD in order to sort HE (CD34^+CD43^−CXCR4^−CD73^−CD90^+VECad^+), EHT (CD34^+CD43^intCXCR4^−CD73^−CD90^+VECad^+) and HSC-like (CD34^+CD43^+CD90^+CD38^−) cells, according to previously described markers (Guibentif, C. et al. Single-Cell Analysis Identifies Distinct Stages of Human Endothelial to-Hematopoietic Transition. Cell Reports 19, 10-19 (2017); Ditadi, A. et al. Human definitive haemogenic endothelium and arterial vascular endothelium represent distinct lineages. Nat Cell Biol 17, 580-591 (2015); and Choi, K.-D. et al. Identification of the Hemogenic Endothelial Progenitor and Its Direct Precursor in Human Pluripotent Stem Cell Differentiation Cultures. Cell Reports 2, 553-567 (2012)).
Sorted HE (40,000), EHT (30,000) and HSC-like (5-20,000) cells were plated onto Matrigel (16 μg/cm2, Corning)-coated 96-well flat bottom plates in HE medium with 1% penicillin-streptomycin and kept in a humidified incubator at 37° C., 5% C02, 4% 02 overnight. The following day (day 0), wells were washed twice with PBS and fresh HE medium was added, together with 2-DG (1 mM), UK5099 (10 μM), DCA (3 mM or 10 mM), TSA (60 nM), TCP (300 nM), ACSS2i (5 μM), C646 (10 μM), CP-640186 (5 μM) or Atorvastatin (0.5 μM), where indicated. Media was changed and drugs were added every 2 days and cells were kept in a humidified incubator at 37° C., 5% CO2, 20% O2 for 6-7 days. Pictures were taken using an Olympus IX70 microscope equipped with a CellSens DP72 camera and CellSens Standard 1.6 software (Olympus). For single cell subcultures, single HE cells were directly sorted with a BD FACSAriaIII onto OP9-DL1 stroma in flat-bottom 96-well plates with 120 μl OP9 medium (OptiMEM medium with Glutamax (Invitrogen) with 10% FCS, 1% penicillin-streptomycin solution (Thermo Fisher Scientific) and 1% 2-mercaptoethanol (Invitrogen)) with SCF, IL-6, IL-11, IGF1 and EPO, and with or without 10 μM UK, or 3 mM or 10 mM DCA. The cells were kept in a humidified incubator at 37° C., 5% CO2, 4% O2 and media was replaced every 4 days. […]

HE cells [2] = test: Single HE cell clone assay on OP9-DL1 stroma; format: cell-based, human; details: day 14; total of 552 single cells per condition
Protocol: Sorted HE (40,000), EHT (30,000) and HSC-like (5-20,000) cells were plated onto Matrigel (16 μg/cm2, Corning)-coated 96-well flat bottom plates in HE medium with 1% penicillin-streptomycin and kept in a humidified incubator at 37° C., 5% C02, 4% 02 overnight. The following day (day 0), wells were washed twice with PBS and fresh HE medium was added, together with 2-DG (1 mM), UK5099 (10 μM), DCA (3 mM or 10 mM), TSA (60 nM), TCP (300 nM), ACSS2i (5 μM), C646 (10 μM), CP-640186 (5 μM) or Atorvastatin (0.5 μM), where indicated. Media was changed and drugs were added every 2 days and cells were kept in a humidified incubator at 37° C., 5% CO2, 20% O2 for 6-7 days. Pictures were taken using an Olympus IX70 microscope equipped with a CellSens DP72 camera and CellSens Standard 1.6 software (Olympus). For single cell subcultures, single HE cells were directly sorted with a BD FACSAriaIII onto OP9-DL1 stroma in flat-bottom 96-well plates with 120 μl OP9 medium (OptiMEM medium with Glutamax (Invitrogen) with 10% FCS, 1% penicillin-streptomycin solution (Thermo Fisher Scientific) and 1% 2-mercaptoethanol (Invitrogen)) with SCF, IL-6, IL-11, IGF1 and EPO, and with or without 10 μM UK, or 3 mM or 10 mM DCA. […] At day 14, the wells were collected and scored for GPA+ clones by flow cytometry, using a BD LSRII.

SMILES	decrease in CD43+GPA+ cells (HE cells [1]; day 6 of HE subculture, DCA 3 mM) [%]	increase in CD43+CD45+ cells / cell output (HE cells [1]; day 6 of subculture, deriving from HE, DCA 3 mM or shRNA) [%]	GPA+ clones (HE cells [2]) [clones]	EdU incorporation (proliferation) (HE cells [1]; 24 h pulse, days 1 and 2 of subculture, UK5099 10 μM, DCA 3 mM)	frequency of HSC-like cells deriving from HE (HE cells [1]; 3 days subculture, UK5099 10 μM, DCA 3 mM)	proliferation of CD45+ cells deriving from HE (HE cells [1]; CTV, UK5099 10 μM, DCA 3 mM)	proliferation of the GPA+ population deriving from HE (HE cells [1]; CTV, day 3, UK5099 10 μM, DCA 3 mM)	CD43+GPA+ cell output (HE cells [1]; day 3 of HE subculture, UK5099 10 μM, 1-AA 4 mM, DCA 3 mM, vs control)	levels of total CD43+ cells (HE cells [1]; day 6, UK5099 10 μM, 1-AA 4 mM)	decrease in CD43+CD45+ population (HE cells [1]; day 6, deriving from HE, UK5099 10 μM) [fold]
O=C(O)C(Cl)Cl [DCA, dichloroacetate]	50	80	7							
N#CC(=Cc1cn(-c2ccccc2)c2ccccc12)C(=O)O [UK5099, 2-Cyano-3-(1-phenyl-1H-indol-3-yl)-2-propenoic acid]			12	no differences in proliferation	did not have an effect	did not have an effect	did not observe any differences	striking increase	unchanged	2
